Measurements: US20150359798A1, “PIPERAZINYL DERIVATIVE REDUCES HIGH-FAT DIET-INDUCED ACCUMULATION OF FAT IN THE LIVERS, […]” (priority 2011, published 2015)

Legend:
mice fed with HFD = test: HFD-fed mice, 8 weeks, gavage: serum/liver lipids, body weight, food intake; format: in vivo; settings: for HDL chol. / LDL chol. / TG / Tot. chol.: Table 2, mice
Procedure: In the 8 week experiment, C57BL/6J male mice (21-22 g), after fasting, were fed a HFD as a model of hyperlipidemia for 8 weeks. During the 2 month experiments, mice fasted for one night before the experiment was changed from a standard diet (STD) to a HFD and then the mice were randomly divided into 5 groups, including 2 control and 3 treatment groups. Six mice were used in each group. […] Liver from the protection group supplemented with KMUP-1 HCl (1 mg/kg/day) were used to determine the HMG CoA reductase expression.
Within 2 months, the 3 day food intake average for each animal was measured. The weight gain and plasma lipid levels of each group were determined and compared to the non-treatment control group. Mouse blood was collected during the daytime by cardiac puncture followed by centrifugation at 90 g (Benchtop Centrifuge, U.S.A.) to separate the serum, and frozen at −80° C., for biochemical analysis using a Hitachi Clinical Analyzer 7070 (Hitachi High-Technologies Co. Tokyo, Japan). Agents used in the assays were Obtained from Merck & Co. (Kenilworth, N.J., U.S.A.). Triglyceride (TG), total cholesterol, HDL cholesterol and LDL cholesterol in mouse serum were measured by methods used in the clinic. To measure the hepatic TG, isolated liver were cut into small chips.

HMG CoA reductase = HMG CoA reductase expression in liver of HFD mice (8 weeks); format: in vivo; settings: KMUP-1 HCl 2.5, 5 mg/kg, simvastatin 5 mg/kg
Procedure: In the 8 week experiment, C57BL/6J male mice (21-22 g), after fasting, were fed a HFD as a model of hyperlipidemia for 8 weeks. During the 2 month experiments, mice fasted for one night before the experiment was changed from a standard diet (STD) to a HFD and then the mice were randomly divided into 5 groups, including 2 control and 3 treatment groups. Six mice were used in each group. […]
The obtained protein extract was boiled to a ratio of 4:1 with a sample buffer (Tris 100 mM, pH 6.8, glycerol 20%, SDS 4% and bromophenol blue 0.2%). Electrophoresis was performed using 10% SDS-polyacrylamide gel (1 hour, 100 V, 40 mA, 20 μg protein per lane).
The blot was then incubated with anti-mouse or anti-goat IgG linked to alkaline phosphatase (1:1000) for 1 hour.

mice fed a HFD = test: HFD-fed mice, 14-week experiment: body weight, liver morphology, H&E, oil globulets; format: in vivo
Procedure: In the 14-week experiment, mice were fed a HFD from week 1 to week 14. During the 3 month experiments, KMUP-1 HCl (2.5 mg) was added to 200 ml tap water and) and drink for 14 weeks or for the last 6 weeks on mice or obese mice fed HFD, separately. 5 mice had free access to drinking water from week 1 to week 14 (protective group) or from week 8 to week 14 (treatment group). Tap water was used to normalize mineral nutrition (Scheme A).
The diameter of the white bar in the photograph was standardized at 100 μM for measuring the specific diameter of oil globulets in a whole liver slice, observed by microscope, with the aid of Powerpoint PC computer software (Microsoft®, USA) and printed out by a Hewlett-Packard® printer (USA). An increase in oil globulet diameter and cell number indicated increasing liver steatosis, i.e. steaotohepatitis. In contrast, decrease in diameter and the number of fat cells indicated the inhibition of steaotohepatitis. […] Hematoxylin-eosin (H&E) and […] staining of liver were used to assess oil globulet numbers under a microscope.
Mice liver and epididymal fat pads were cut and soaked in formalin, dehydrated through graded alcohols and embedded in paraffin. Specimens of liver tissues and epididymal fat pads fixed with formalin (4%) were embedded in paraffin for one hour at 4° C., cut into […] sections, and subjected to H&E staining before examination by light microscope. In heart tissues, the 4-μm-thick paraffin sections were cut from paraffin-embedded tissue blocks and de-paraffinized by immersion in xylene and rehydrated. The slices were then dyed with H&E. After gently rinsing with water, each slide was dehydrated through graded alcohols and finally soaked in xylene twice.
Hematoxylin-eosin (H&E) and IHC staining of liver were used to assess oil globulet numbers under a microscope. A 100 μM white bar was used to determine oil globule sizes in the liver. Oil globulets in a cell were counted from larger to smaller until size limitations were reached. Increases of oil globulet diameter and number indicated increasing liver steatosis. In contrast, a decrease in oil globulet diameters and numbers could indicate the inhibition of liver steatosis. Oil globulets were measured using a Nikon Eclipse TE200-S microscope, aided by Powerpoint computer software (Microsoft®) and printed by a HP® printer to measure the diameter and number of oil globulets on paper. Counting: of oil globules was performed from larger to smaller ones until the observation reached its limit.

LDLRs = test: IHC staining of LDLRs in liver; format: in vivo, mice; settings: drinking KMUP-1 HCl; HFD; protection and treatment groups
Procedure: Liver tissues were fixed in 10% buffered formalin for 24 hours and then embedded in paraffin. The paraffin-embedded liver tissue sections (4 μm thick) were first heat immobilised and deparaffinised using xylene and then rehydrated in a graded series of ethanol, followed by a final wash in distilled water. Finally, tissue sections were stained with PAS and Mayer's hematoxylin solution.
For IHC of hepatic LDLRs in the animals that drink the KMUP-1 HCl (2.5 mg/200 mL for 1-14 weeks or 8-14 weeks), antigen retrieval of de-paraffinated sections was performed in Dako target retrieval solution, pH 9.0, in a vegetable steamer followed by the quenching of endogenous peroxidase activity with 3.0% H2O2 in methanol. Sections were then incubated with specific primary antibodies overnight at 4° C. in a humidified chamber. The sections were then examined using a DAKO REAL EnVision™ Detection System kit (DAKO, Carpinteria, Calif., U.S.A.) and counterstained with hematoxylin. Images were obtained through a Nikon Eclipse TE200-S microscope.

eNOS = test: Table 4 eNOS (% of control); format: cell-based; settings: control group = 100 (%)
PDE-5A = test: Table 4 PDE-5A (% of control); format: cell-based; settings: control group = 100 (%)
ROCKII = test: Table 4 ROCKII (% of control); format: cell-based; settings: control group = 100 (%)

SMILES: Cl.Cn1c(=O)c2c(ncn2CCN2CCN(c3ccccc3Cl)CC2)n(C)c1=O [KMUP-1 HCl, 7-[2-[4-(2-chlorophenyl)piperazinyl]ethyl]-1,3-dimethylxanthine HCl complex]
- body-weight gain (mice fed with HFD; KMUP-1 HCl 2.5, 5 mg/kg p.o., simvastatin 5 mg/kg p.o., compared to control HFD group, p<0.05): reduced
- HDL chol. (mice fed with HFD; dose 2.5 mg/kg): 103.6 ± 4.2 mg/dL
- LDL chol. (mice fed with HFD; dose 2.5 mg/kg): 14.2 ± 1.4 mg/dL
- TG (mice fed with HFD; dose 2.5 mg/kg): 74.5 ± 5.1 mg/dL
- Tot. chol. (mice fed with HFD; dose 2.5 mg/kg): 133 ± 5.1 mg/dL
- HDL chol. (mice fed with HFD; dose 5 mg/kg): 118.3 ± 5.7 mg/dL
- LDL chol. (mice fed with HFD; dose 5 mg/kg): 14.2 ± 2.2 mg/dL
- TG (mice fed with HFD; dose 5 mg/kg): 72.67 ± 4.7 mg/dL
- Tot. chol. (mice fed with HFD; dose 5 mg/kg): 125.5 ± 9.8 mg/dL
- HFD-induced downregulation of HMG-CoA reductase expression in liver (HMG CoA reductase): significantly reversed
- body weight (mice fed a HFD; drinking 2.5 mg/200 ml water, protection and treatment groups): decreased
- fatty liver (gross morphology) (mice fed a HFD; protective group, more prominent than in the treatment group): markedly decreased
- hepatic LDLRs (IHC) (LDLRs): increased
- eNOS (eNOS): 155.16 ± 14.8%
- PDE-5A (PDE-5A): 64.5 ± 4.5%
- ROCKII (ROCKII): 42.5 ± 6.3%
